Consider 14 compounds from patent US20250108036A1, “COMPOSITIONS FOR REMOVING SENESCENT CELLS AND USES THEREOF” (LIFECEUTIX CO., LTD., priority 2021, published 2025).

Common to all, as to type: cell-based, human
For test [1], the system named is foreskin cells in which senescence was induced by doxorubicin. Description: CellTiter-Glo cell viability of doxorubicin-induced senescent foreskin cells (Examples 1-2, 10, 11, 13; Tables 4, 63, 65). As to conditions: Homo sapiens, 72 h, read-out: Survival (%); for viability at 30 µM: 30 μM test compound; for viability at 90 µM: 90 μM test compound; for viability at […]: […] test compound. A general note: Cellular ATP, detected with luciferase, serves as a proxy for viable cell number.
Method: After 3 days, cell viability was measured using CellTiter-Glo Luminescent Cell Viability Assay (Promega) or light microscopy.

Test [2] has as its system HMGN1. Description: HMGN1 ELISA in culture medium of foreskin cells (Examples 10, 11; Tables 62, 63, 64). As to conditions: Homo sapiens; for activity at 90 µM: 90 μM test compound; for activity at 30 µM: read-out: HMGN1. For orientation: ELISA stands for enzyme-linked immunosorbent assay.
The test system of test [3] is HMGN1. Description: HMGN1 ELISA in culture medium of A549 cancer cells (Example 12, Table 66). As to conditions: Homo sapiens; for activity at 90 µM: test compound 90 μM.
Test [4] deals with A549. Kind of test: CellTiter-Glo cell viability of senescent A549 cancer cells (Example 12, Table 67). As to conditions: Homo sapiens; for viability at 90 µM: 90 μM test compound.
The mark [5] stands for this setting: 1.1 μM test compound, doxorubicin-induced senescent foreskin cells, CellTiter-Glo, 0 μM = 100.
Where [6] appears, read: 10 μM test compound, doxorubicin-induced senescent foreskin cells, CellTiter-Glo, 0 μM = 100.
The mark [7] stands for this setting: doxorubicin-induced senescent foreskin cells, CellTiter-Glo, 0 μM = 100.
Setting [8] is: doxorubicin-treated foreskin cells, DMSO = 100.
[9] abbreviates: A549, doxorubicin-induced senescent A549 cells, ELISA, DMSO = 100, read-out: HMGN1 (amount of HMGN1 secreted in the cell culture).
[10] abbreviates: A549, doxorubicin-induced senescent A549 cancer cells, 1.1 μM test compound, CellTiter-Glo, read-out: Survival (%).
Setting [11] is: A549, doxorubicin-induced senescent A549 cancer cells, 10 μM test compound, CellTiter-Glo, read-out: Survival (%).
The mark [12] stands for this setting: A549, doxorubicin-induced senescent A549 cancer cells, 30 μM test compound, CellTiter-Glo, read-out: Survival (%).
[13] abbreviates: A549, doxorubicin-induced senescent A549 cancer cells, CellTiter-Glo, read-out: Survival (%).
Where [14] appears, read: 30 μM test compound, doxorubicin-treated foreskin cells, DMSO = 100.
[15] abbreviates: A549, doxorubicin-induced senescent A549 cells, test compound 30 μM, ELISA, DMSO = 100, read-out: HMGN1 (amount of HMGN1 secreted in the cell culture).

Each structure is given as a SMILES string. Where two headings read alike, the source gives them in different places.

Take `C=C(CC)C(=O)c1ccc(OCC(=O)O)c(Cl)c1Cl` [LX-2603, Ethacrynic acid, reference compound]: the viability at 1.1 µM in test [1] (setting [5]) is 100%; in test [4] (setting [10]), 98.7%. Moreover, the viability at 10 µM in test [1] (setting [6]) turned out to be 95.8%; in test [4] (setting [11]) it was 89.1%. Besides, the viability at 30 µM in test [1] (setting [7]) came to 52.6%; in test [4] (setting [12]), 41.5%. Further, the viability at 90 µM in test [1] (setting [7]) came out at 37.8%; in test [4] (setting [13]) it was 1.8%. The viability at […] in test [1] (setting [7]) was 103%. Also, the figures for the activity at 90 µM in test [2] (setting [8]) and in test [3] (setting [9]) were 218% and 245%, respectively.
For `C=CC(=O)N1CCC[C@@H](n2nc(-c3ccc(Oc4ccccc4)cc3)c3c(N)ncnc32)C1` [LX-3209, Ibrutinib, reference compound], the values for the viability at 1.1 µM in test [1] (setting [5]) and in test [4] (setting [10]) were 105% and 95.4%, respectively. For the same compound, the viability at 10 µM came out at 2% in test [1] (setting [6]) and 55.7% in test [4] (setting [11]). For the same compound, the viability at […] in test [1] (setting [7]) turned out to be 52.8%. In addition, the activity at 30 µM is 274% in test [2] (setting [14]) and 199% in test [3] (setting [15]). Also, the viability at 30 µM in test [4] (setting [12]) amounted to 2.2%.
As to `C=C1C(=O)C2CCN1CC2` [LX-702, 2-Methylene-3-quinuclidinone], the viability at 1.1 µM in test [1] was 82.1%; in test [4] (A549, read-out: Survival (%)), 87.3%. In addition, the viability at 10 µM in test [1] amounted to 6.5%; in test [4] (A549, read-out: Survival (%)), 33.4%. Besides, the activity at 30 µM in test [2] was determined as 278%; in test [3] (A549, read-out: HMGN1 (amount of HMGN1 secreted in the cell culture)), 305%. Further, the viability at 30 µM in test [4] (A549, read-out: Survival (%)) was determined as 3%.
For `CCn1c2ccccc2c2cc(CNC)ccc21` [LX-901], the viability at 1.1 µM in test [1] (setting [5]) amounted to 99.5%; in test [4] (setting [10]), 97.8%. For the same compound, the values for the viability at 10 µM in test [1] (setting [6]) and in test [4] (setting [11]) were 67.5% and 82.7%, respectively. For the same compound, the viability at 30 µM in test [1] (setting [7]) came to 15.8%; in test [4] (setting [12]), 34.8%. Besides, in test [1] (setting [7]), the viability at […] worked out at 98.4%. Also, the activity at 30 µM in test [2] (setting [14]) amounted to 257%. Further, the activity at 90 µM in test [3] (setting [9]) was found to be 255%. Also, the viability at 90 µM in test [4] (setting [13]) was 11.7%.
For `COC(=O)N[C@]12CCC(C)(C)C[C@H]1[C@H]1C(=O)C=C3[C@@]4(C)C=C(C#N)C(=O)C(C)(C)[C@@H]4CC[C@@]3(C)[C@]1(C)CC2` [LX-2305], the viability at 1.1 µM stood at 19.6% in test [1] (setting [5]) and 33.6% in test [4] (setting [10]). The figures for the activity at 30 µM in test [2] (setting [14]) and in test [3] (setting [15]) were 292% and 269%, respectively.
`O=C(O)Cn1nnc(-c2cc(N3CCC(Oc4cc(F)ccc4Br)CC3)no2)n1` [LX-309]: the results for the viability at 1.1 µM in test [1] (setting [5]) and in test [4] (setting [10]) were 52.3% and 100%, respectively. Besides, the results for the viability at 10 µM in test [1] (setting [6]) and in test [4] (setting [11]) were 4.3% and 92.3%, respectively. The viability at […] in test [1] (setting [7]) was 12.5%. The activity at 30 µM in test [2] (setting [14]) is 283%; in test [3] (setting [15]), 254%. Besides, in test [4] (setting [12]), the viability at 30 µM is 28.1%.
As for `CN(C)CCCN1c2ccccc2CCc2ccc(Cl)cc21` [LX-3101, Clomipramine, reference compound], the viability at 1.1 µM in test [1] (setting [5]) came to 93.3%; in test [4] (setting [10]) it was 89.2%. Also, the viability at 10 µM in test [1] (setting [6]) worked out at 11.7%; in test [4] (setting [11]), 7.1%. In addition, the viability at […] in test [1] (setting [7]) is 75.8%. For the same compound, the activity at 30 µM in test [2] (setting [14]) was 284%; in test [3] (setting [15]) it was 334%.
Consider `C=C(C)[C@@H]1CC[C@]2(C(=O)NCC)CC[C@]3(C)[C@H](CCC4[C@@]5(C)C=C(C#N)C(=O)C(C)(C)[C@@H]5CC[C@]43C)[C@@H]12` (some centres unmarked) [LX-2311], for which the results for the viability at 1.1 µM in test [1] (setting [5]) and in test [4] (setting [10]) were 39.5% and 97.5%, respectively. Also, in test [1] (setting [7]), the viability at […] came to 4.1%. Moreover, the activity at 30 µM in test [2] (setting [14]) was 271%; in test [3] (setting [15]), 276%. In test [4] (setting [11]), the viability at 10 µM was 8.9%.
`CS(=O)(=O)CCNCc1ccc(-c2ccc3ncnc(Nc4ccc(OCc5cccc(F)c5)c(Cl)c4)c3c2)o1` [LX-1607, Lapatinib, reference compound]: the figures for the viability at 1.1 µM in test [1] (setting [5]) and in test [4] (setting [10]) were 77% and 95.7%, respectively. Moreover, the viability at 10 µM in test [1] (setting [6]) was 54.3%; in test [4] (setting [11]), 62.7%. The viability at 30 µM was found to be 32.8% in test [1] (setting [7]) and 15.1% in test [4] (setting [12]). In addition, the viability at […] in test [1] (setting [7]) amounted to 68%. For the same compound, the activity at 30 µM in test [2] (setting [14]) stood at 238%; in test [3] (setting [15]), 311%.
As to `CN(C)c1nc(N(C)C)nc(N(C)C)n1` [LX-501, Altretamine, reference compound], the viability at 1.1 µM is 103% in test [1] (setting [5]) and 99.8% in test [4] (setting [10]). Besides, the figures for the viability at 10 µM in test [1] (setting [6]) and in test [4] (setting [11]) were 98.9% and 103%, respectively. In addition, the viability at 30 µM in test [1] (setting [7]) amounted to 85.2%; in test [4] (setting [12]) it was 99.5%. In addition, the viability at 90 µM in test [1] (setting [7]) is 53.7%; in test [4] (setting [13]), 13.1%. In addition, the viability at […] in test [1] (setting [7]) was found to be 105%. Moreover, the activity at 90 µM is 168% in test [2] (setting [8]) and 233% in test [3] (setting [9]).
Take `C[C@H]1[C@H](SCc2ccccc2)O[C@@H]2O[C@@]3(C)CC[C@H]4[C@H](C)CC[C@@H]1[C@@]24OO3` [LX-505]: the results for the viability at 1.1 µM in test [1] (setting [5]) and in test [4] (setting [10]) were 35.2% and 51.1%, respectively. Further, the viability at […] in test [1] (setting [7]) was determined as 0.4%. The activity at 30 µM in test [2] (setting [14]) was found to be 299%; in test [3] (setting [15]) it was 317%.
Take `C[C@H](N)C(=O)N1C[C@H](CCCB(O)O)[C@](N)(C(=O)O)C1` [LX-3107]: the results for the viability at 1.1 µM in test [1] (setting [5]) and in test [4] (setting [10]) were 87.7% and 96.5%, respectively. The viability at 10 µM in test [1] (setting [6]) was 74.2%; in test [4] (setting [11]) it was 77.8%. Further, the viability at 30 µM in test [1] (setting [7]) was found to be 33.4%; in test [4] (setting [12]), 4.4%. Besides, the viability at […] in test [1] (setting [7]) is 83.4%. Further, the activity at 30 µM was 196% in test [2] (setting [14]) and 267% in test [3] (setting [15]).
For `CC1(C)CC[C@]2(CO)CC[C@]3(C)[C@H](C(=O)C=C4[C@@]5(C)[C@H]6O[C@@]6(C#N)C(=O)C(C)(C)[C@@H]5CC[C@]43C)[C@@H]2C1` [LX-2318], the results for the viability at 1.1 µM in test [1] (setting [5]) and in test [4] (setting [10]) were 78.3% and 94.1%, respectively. Also, the viability at […] in test [1] (setting [7]) was 12.1%. Also, the results for the activity at 30 µM in test [2] (setting [14]) and in test [3] (setting [15]) were 264% and 278%, respectively. Moreover, the viability at 10 µM in test [4] (setting [11]) came out at 31.1%.
In the case of `Cc1c(O)cccc1C(=O)N[C@@H](CSc1ccccc1)[C@H](O)CN1C[C@H]2CCCC[C@H]2C[C@H]1C(=O)NC(C)(C)C` [LX-1905, Nelfinavir, reference compound], the viability at 1.1 µM in test [1] (setting [5]) worked out at 102%; in test [4] (setting [10]), 100%. Further, the viability at 10 µM is 27.9% in test [1] (setting [6]) and 89.1% in test [4] (setting [11]). Moreover, the viability at 30 µM came to 13.2% in test [1] (setting [7]) and 53.9% in test [4] (setting [12]). Further, the viability at […] in test [1] (setting [7]) turned out to be 66.4%. For the same compound, the activity at 30 µM in test [2] (setting [14]) worked out at 315%; in test [3] (setting [15]), 201%.
